row,SMILES,melting point [°C]
1,CCCCc1ccc(-c2nc(F)c(-c3ccc(OC)cc3)o2)cc1,72
2,O=C(c1c[nH]nc1-c1ccccc1)C(CCN1CCC(O)(c2ccccc2)CC1)c1ccc(Cl)c(Cl)c1 (configuration not stated),99 to 101
3,CCC1(CC)C(=O)N(C(C)(C)CC(C)(C)C)CC(C)(C)N1OC(C)(C)C#N,49 to 53
4,Nc1c(C(=O)c2cccc(Cl)c2)[nH]c2cc(Cl)ccc12,99 to 102
5,CCCc1nc2c(N)nc3c(c2n1CCOCCS(C)(=O)=O)CCCC3,153 to 155
6,CN1C(=O)C(C)(C)N=C(c2ccccc2F)c2c(Cl)c(N)c(Cl)c(Cl)c21,165 to 166
7,N#Cc1c[nH]cc1-c1ccccc1,123 to 125
8,C=C(C)CNc1cc(Cl)nnc1Cl,172 to 175
9,O=C(O)C(CN1C(=O)CNC1=O)CS(=O)(=O)c1ccc(-c2ccc(Cl)cc2)cc1 (configuration not stated),188 to 190
10,O=C1CCN(Cc2ccc(O)cc2)CC1C(c1ccccc1)c1ccccc1 (configuration not stated),133 to 134
11,CCn1c(C)c(C2(N(c3ccccc3)c3ccccc3)OC(=O)c3nccnc32)c2ccccc21 (configuration not stated),98 to 100
12,Cn1c(-c2nnc3ccc(NC=O)nn23)cnc1[N+](=O)[O-],224 to 226
13,CCCNC(=O)c1nc2n(n1)-c1ccc(Cl)cc1C(c1ccccc1Cl)=NC2,110 to 113
14,FC(F)(F)C(c1ccc(Cl)cc1)C(Br)c1ccccc1 (configuration not stated),143 to 146
15,Cc1ccc(CC(=O)N[C@H]2C[C@H](C(=O)O)Nc3cc(Cl)cc(Cl)c32)cc1 (relative stereo),229 to 230
16,COC(=O)c1ccc(CN2CCC(=O)C(C(c3ccccc3)c3ccccc3)C2)cc1 (configuration not stated),107 to 108
17,Cc1ccc([N+](=O)[O-])cc1C=CC#N,113
18,O=[N+]([O-])c1cnc(Cl)nc1,78 to 80
19,CON=C(N)Nc1nc(C)nc(OC)n1,142
20,COC(=O)C(CC(=S)c1ccc(C)cc1)C(C)=O (configuration not stated),110 to 112
21,CC(=O)NC1=C(N)C(=O)c2cc(C)c(C)cc2C1=O,212 to 216
22,O=C(Nc1c(F)cccc1Cl)c1ccc(-n2nc(C(F)(F)F)cc2C2CC2)c(F)c1,148 to 152
23,CC(C)(C)c1cc(-c2ccc(C(=O)O)c(C(C)(C)C)c2)ccc1O,> 240
24,CC(C)(N)CNCCCCCCNCC(C)(C)N,25 to 35
25,CSc1ccc(-c2ccc(S(=O)(=O)CC(CO)N(O)C=O)cc2)cc1 (configuration not stated),161 to 162
26,CCc1nc2c(C)cc(C)nc2n1Cc1ccc(C(=C(c2nnn[nH]2)S(C)=O)c2ccccc2)cc1 (configuration not stated),141 to 144

row,SMILES,melting point [°C]
1,CCN1CCN(c2cc3c(cc2Cl)c(=O)c(C(=O)O)cn3CC)CC1,245 to 248
2,CSc1cc2c(cc1C(F)(F)F)N(C(=O)Nc1ccc(CO)cc1)CC2,184 to 187
3,CC1(C(O)C(N)=O)CC=CCC1 (configuration not stated),102 to 110
4,CSCc1cc([N+](=O)[O-])ccc1N,72 to 77
5,COc1cccc(C2OC(=O)CC2C(=O)O)c1OC (configuration not stated),129 to 130
6,Nc1c(Cl)cnc(OCC(=O)O)c1Cl,200 to 201
7,O=C(CCCBr)N1CC(c2ccc(Cl)cc2)Sc2ccccc21 (configuration not stated),91 to 92
8,COC(=O)c1ccc(CC(C)NCC(O)c2ccccc2)cc1 (configuration not stated),82 to 84
9,O=C(Oc1ccc(OC(=O)c2ccccc2)c(-c2ccccc2)c1)c1cc(O)c(O)c(O)c1,82 to 84
10,COC1CCC2C3CCC4CC(=O)C(Cl)CC4(C)C3CCC12C (configuration not stated),202 to 210
11,COc1ccc(NC(=S)Nc2cscc2C)c(N)c1,143 to 146
12,CN(C)Cc1ccc(CNC(=O)C2Cc3ccccc3N2S(=O)(=O)c2ccc(-c3ccccc3C(F)(F)F)cc2)cc1 (configuration not stated),53
13,COc1ccc(-c2cccc3c2N(S(=O)(=O)c2ccc(OC)cc2)CC3)cc1,176 to 177
14,C#Cc1cc(Nc2ncnc3cnc(NC(=O)/C=C/CN(C)C)cc23)ccc1Cl,173 to 176
15,COC(=O)C1=C(C(OC)OC)NC(C)=C(c2nc(CCl)no2)C1c1cccc([N+](=O)[O-])c1 (configuration not stated),141 to 142
16,FC(F)(F)c1ccc(-c2ncn(CCCN3CCOCC3)c2-c2ccncc2)cc1,133
17,CCC(CC)n1cc(C)nc(N2CCc3cc(OC)cc(C)c32)c1=O,138 to 140
18,COc1cc(C(=O)c2ccc(Cl)cc2)cc([N+](=O)[O-])c1O,128 to 131
19,O=S(=O)(Nc1ccc2c(OCc3cccc(-c4ccc(C(F)(F)F)cc4)n3)cccc2c1)C(F)(F)F,180 to 182
20,Cc1ccccc1C(=O)Nc1ccc(-n2nc(C(F)(F)F)cc2C2CC2)c(F)c1,142 to 144
21,Cc1cccc(NC(=O)Nc2nnc(C(F)(F)F)s2)c1,255 to 257
22,COc1cc(OC)c2c(c1)C(=O)c1cc(C)cc(OC)c1C2=O,225
23,Oc1ccc(-c2c3ccccc3cc3oc4ccccc4c23)c(O)c1,201 to 202
24,O=C(Nc1cccnn1)N1CCN(c2cc(-c3ccccc3F)ncn2)CC1,207 to 208
25,NC(=O)C(=O)CCCCl,87
26,O=C1c2c(Cl)cccc2-c2cc(O)cc3cccc1c23,308 to 312

row,SMILES,melting point [°C]
1,COC(=O)CCC(C)(C)c1ccc(OC)c(NC(=O)C[C@H]2O[C@H](c3cccc(OC)c3OC)c3cc(Cl)ccc3N(CC(C)(C)COC(C)=O)C2=O)c1,157 to 158
2,O=C(c1ccc(F)cc1)c1c(OCc2ccccc2)c(=O)ccn1CCO,182 to 183
3,CC(=Cc1ccc(OCc2cccc(Cl)c2)cc1)[N+](=O)[O-],117 to 118
4,[N-]=[N+]=NC(=O)c1ccc2c(c1)C(=O)OC2=O,100 to 103
5,Cc1nc(N)sc1S(=O)(=O)N1CCN(C)CC1,188
6,O=C(O)CCc1ccc(-c2nc(=O)c3ccccc3s2)nc1,232
7,CC(/C=C/c1ccsc1-c1ccc2c(c1)C(C)(C)CCC2(C)C)=C\C(=O)O,195 to 197
8,Cc1ccc2c(c1)SC(C(F)(F)F)C(C(=O)O)=C2 (configuration not stated),187 to 192
9,CC(=O)c1cc(C(F)(F)F)nn1-c1ccc(NC(=O)c2ccccc2F)cc1,188 to 189
10,N#Cc1nn(-c2c(Cl)cc(C(F)(F)F)cc2Cl)c(N)c1S(=O)(=O)CC(F)(F)F,157
11,COc1ccc(N2CCOCC2)c2sc(NC(=O)N(C)C3CCCCCC3)nc12,198 to 200
12,CC(C)C(c1cncnc1C#N)N(C)C(=O)Cc1ccccc1 (configuration not stated),80 to 81
13,CCOC(=O)c1cn(-c2nc(SC(C)C)nc(C(F)(F)F)c2I)nc1C(F)(F)F,107 to 108
14,C[C@@H]1OC(=O)C[C@H]2O[C@@H]12,51 to 52
15,CCOC(=O)COc1cc(OCC=C(C)C)ccc1C(=O)C=Cc1ccc(C(C)(C)C)cc1,78 to 79
16,NS(=O)(=O)c1ccc(C2CCCC2)cc1,158
17,CN(C)c1ccnc(CO)n1,83 to 84
18,CCOCc1nc2c(N)nc3c(c2n1NCCCNC(=O)C(C)C)CCCC3,163 to 165
19,CCCc1c(OCCCCc2ccc3cc(O)c(O)cc3c2)ccc(C(=O)O)c1O,173 to 175
20,Clc1ccc2c(c1)C(c1ccccc1)=NCc1nnc(CCOCc3ccccc3)n1-2,115 to 117
21,COC(=O)c1ccc2cc(-c3cc4c(c(C56CC7CC(CC(C7)C5)C6)c3)OCO4)ccc2c1,217 to 220
22,O=C1CCC(O)=C1Cc1cccc(CCNS(=O)(=O)c2ccc(Cl)cc2)c1,176 to 178
23,O=C(NC(=O)C(Br)CBr)Nc1ccccc1 (configuration not stated),160 to 161
24,CC(C)(C)NS(=O)(=O)c1ccc(C(=O)c2ccc(Cl)cc2)cc1F,152
25,CS(=O)(=O)c1ccc(-c2ccccc2-c2ccc(Cl)cc2)cc1,180 to 181
26,CCCNCC(O)c1cccc(Br)c1 (configuration not stated),79.7 to 81.4

row,SMILES,melting point [°C]
1,CCc1ccc(-c2coc3c(C)c(C)c(N)c(C)c23)cc1,68 to 69
2,COC(=O)C1=C(C)NC(C)=C(C(=O)OC)C1c1ccccc1CO,218 to 220
3,O=C1c2ccccc2C(=O)N1OCc1cn(C(c2ccccc2)(c2ccccc2)c2ccccc2)cn1,155 to 157
4,COc1ccc(-c2sc3cc(OC)ccc3c2C(=O)O)cc1,166 to 170
5,CCCCCc1ccc(OCC(=O)O)c(CCCCC)c1,115 to 120
6,O=c1nc(-c2cccc(-c3ccco3)n2)sc2ccccc12,218
7,COc1ccccc1N1CCN(C(=O)N(C)c2nc(C)c(C)nc2OC)CC1,140 to 142
8,CN(Cc1ccc(Cl)cc1)c1ccc(S(=O)CCCCCC(=O)O)cc1 (configuration not stated),109 to 111
9,CN(C)C1CC2=CNC=C3C=C(C#N)OCC1=C32 (configuration not stated),205 to 207
10,CC(C)(c1ccccc1)N1CCC=C(c2ccccc2)C1=O,119 to 120
11,CSc1cc(C(=O)C(C#N)C(=O)C2CC2)ccc1C (configuration not stated),64.7 to 67.9
12,CCCCn1c(=O)c2cc(C(=O)O)cn2c2ccccc21,212 to 214
13,CC(=O)NOCc1nc2c(N)nc3c(c2n1CC(C)C)CCCC3,187 to 188
14,COC(=O)c1ccc2cc(OC)c(OC)cc2c1O,144 to 145
15,CCOC(=O)C1=C(C)N2CCNC2=C(C(=O)OCC)C1c1cccs1 (configuration not stated),134
16,COC1(c2cc(F)cc(S(=O)(=O)c3ccc4c(ccc(=O)n4C)c3)c2)CCOC(C)C1 (configuration not stated),85 to 88
17,CCC(=N)Nc1ccccc1N1CCOCC1,114
18,CSc1nn2c(O)cc(O)nc2c1S(=O)(=O)c1ccccc1,> 230
19,Cc1nc(-c2cccnc2)sc1-c1ccnc(Nc2cc(Cl)c(N3CCOCC3)c(Cl)c2)n1,276 to 278
20,Cc1ccc(C)n1-c1ccc(F)c([N+](=O)[O-])c1,99 to 101
21,O=C(Nc1ccccc1)N1CCC(CN2CCc3c([nH]c4ccccc34)C2)CC1,207 to 209
22,NCc1ccc(-c2nc(-c3ccccc3)c(-c3ccncc3)[nH]2)cc1,214 to 215
23,N#Cc1[nH]c2ccccc2c1Cl,150 to 154
24,CCCCN(CCCC)c1ccc(C=Cc2ccc(C=CC3=C(C#N)C(=C(C#N)C#N)OC3(C)C)cc2)c(OC)c1,258 to 260
